Measurements from PubChem BioAssay (NCI).
Several values for one entry are separate records, joined by “and”; a condition that tells them apart may be missing. Equal entries are not always repeated.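 Values below derive from 48-hour exposures of cells grown in 96-well plates, with endpoints linearly interpolated between the two concentrations bracketing the appropriate inhibition level. GI50 marks 50% less growth. TGI is the concentration that stops growth completely.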 Where a SMILES comes first, the peptide text is derived from it. The star is where a group is joined. Palmitoyl = CCCCCCCCCCCCCCCC(=O)*

What was measured:
Experiment in all cases: NCI tumour cell line growth inhibition, 48 h
A549 NSCLC = test system: A549 NSCLC
COLO 205 colon = test system: COLO 205 colon
HCT-15 colon = test system: HCT-15 colon
IGROV1 ovarian = test system: IGROV1 ovarian
LOX IMVI melanoma = test system: LOX IMVI melanoma
OVCAR-5 ovarian = test system: OVCAR-5 ovarian
RXF 393 renal = test system: RXF 393 renal
T-47D breast = test system: T-47D breast
UACC-257 melanoma = test system: UACC-257 melanoma
BT-549 breast = test system: BT-549 breast

SMILES | TGI (A549 NSCLC) | TGI (COLO 205 colon) | TGI (HCT-15 colon) | TGI (IGROV1 ovarian) | TGI (LOX IMVI melanoma) | TGI (OVCAR-5 ovarian) | TGI (RXF 393 renal) | TGI (T-47D breast) | TGI (UACC-257 melanoma) | TGI (BT-549 breast) | GI50 (A549 NSCLC) | GI50 (COLO 205 colon) | GI50 (HCT-15 colon) | GI50 (IGROV1 ovarian) | GI50 (LOX IMVI melanoma) | GI50 (OVCAR-5 ovarian) | GI50 (RXF 393 renal) | GI50 (UACC-257 melanoma) | GI50 (BT-549 breast) | GI50 (T-47D breast)
COc1ccc([C@@]23CCC(=O)C[C@@H]2N(C)CC3)cc1OC | > 100 µM | > 100 µM | > 100 µM | > 100 µM | > 100 µM | > 100 µM | > 100 µM | > 100 µM | > 100 µM | – | – | – | – | – | – | – | – | – | – | –
C=C1C(=O)O[C@H]2C(=O)[C@H](C)CCC[C@@](C)(O)/C=C\C[C@@]3(C)O[C@@H]3C[C@@H]12 | 38.6 µM | 30.4 µM | 25.9 µM | 41.6 µM | 32.2 µM | 3.64 µM | – | 42.3 µM | 31 µM | – | – | – | – | – | – | – | – | – | – | –
COc1cccc(N2N=C3c4ccccc4-n4c(nc5ccccc54)C3C2N)c1 (configuration not stated) | > 100 µM | > 100 µM | > 100 µM | > 100 µM | > 100 µM | > 100 µM | – | > 100 µM | > 100 µM | > 100 µM | – | – | – | – | – | – | – | – | – | –
C=CC1(CCC(Br)C(C)(C)Cl)CO1 (configuration not stated) | > 10 µM | > 10 µM | > 10 µM | > 10 µM | – | > 10 µM | – | > 10 µM | – | > 10 µM | – | – | – | – | – | – | – | – | – | –
COc1ccc(C=O)cc1Oc1ccc(C[C@H]2c3c(cc(OC)c4c3Oc3cc5c(cc3O4)CCN(C)C5=O)CCN2C)cc1 | > 50 µM | > 50 µM | 27.5 µM | 13.7 µM | 21.8 µM | 34.8 µM | 10.8 µM | > 50 µM | 17.6 µM | – | – | – | – | – | – | – | – | – | – | –
COC(=O)C(Cc1ccccc1)NC(=O)CCCNC(=O)OCc1ccccc1 (configuration not stated) | > 100 µM | > 100 µM | > 100 µM | > 100 µM | > 100 µM | > 100 µM | – | > 100 µM | – | > 100 µM | – | – | – | – | – | – | – | – | – | –
Fc1nc(F)nc(-c2c3ccccc3c3n2CCS3)n1 | > 100 µM | > 100 µM | > 100 µM | > 100 µM | > 100 µM | > 100 µM | > 100 µM | – | – | – | – | – | – | – | – | – | – | – | – | –
Cc1cnc2[nH]c(-c3ccccc3)cc(=O)c2c1 | > 100 µM | > 100 µM | 1.41 µM | > 100 µM | > 100 µM | > 100 µM | – | > 100 µM | – | > 100 µM | – | – | – | – | – | – | – | – | – | –
CCCCCCCC(CC(=O)O)OC(=O)CC(CCCCCCC)OC1OC(C)C(O)C(O)C1OC1OC(C)C(O)C(O)C1O (configuration not stated) | > 100 µM | > 100 µM | > 100 µM | > 100 µM | > 100 µM | > 100 µM | – | > 100 µM | > 100 µM | > 100 µM | – | – | – | – | – | – | – | – | – | –
CC(=O)c1c(O)c(C)c(O)c2c1OC1=CC(=O)C(C(C)=O)C(=O)C12C (configuration not stated) | 25.1 µM and 48.4 µM | 17.4 µM and 54.8 µM | 27.6 µM and 60.4 µM | 38.5 µM and 75.4 µM | 33.3 µM and 37.9 µM | 50.4 µM and 84.6 µM | 22.8 µM and 43.8 µM | – | 22.7 µM and 64.5 µM | – | 3.77 µM and 13.8 µM | 4.71 µM and 19.9 µM | 5.23 µM and 16.6 µM | 5.63 µM and 17.9 µM | 5.53 µM and 12.6 µM | 17.1 µM and 38.1 µM | 5.72 µM and 19.2 µM | 6.02 µM and 30.4 µM | – | –
COc1cc2c(cc1OC)C1Cc3ccccc3CN1CCC2 (configuration not stated) | > 100 µM | > 100 µM | > 100 µM | > 100 µM | > 100 µM | > 100 µM | > 100 µM | > 100 µM | > 100 µM | – | – | – | – | – | – | – | – | – | – | –
CCC1(O)CN(CCOC)[C@H]2C[C@@H]1C(=O)c1[nH]c3ccccc3c12 (some centres not stated) | > 100 µM | > 100 µM | > 100 µM | > 100 µM | > 100 µM | > 100 µM | > 100 µM | – | > 100 µM | > 100 µM | – | – | – | – | – | – | – | – | – | –
CC(=O)Oc1ccc2c(c1)c1c(OC(C)=O)c3ccccc3c(OC(C)=O)c1n2Cc1cccc(C)c1 | > 100 µM | > 100 µM | > 100 µM | > 100 µM | – | > 100 µM | > 100 µM | > 100 µM | – | > 100 µM | – | – | – | – | – | – | – | – | – | –
COC1(OC)/C(=C(\N)C=O)NC(C)(C)N1O | > 100 µM | > 100 µM | – | > 100 µM | > 100 µM | > 100 µM | > 100 µM | – | > 100 µM | > 100 µM | – | – | – | – | – | – | – | – | – | –
CN1C/C(=C\c2ccccc2[N+](=O)[O-])C(=O)/C(=C/c2ccccc2[N+](=O)[O-])C1 | 14.4 µM and 12.9 µM | 0.865 µM and 0.387 µM | 0.527 µM and 0.696 µM | 2.47 µM and 2.1 µM | – | 10.3 µM and 3.87 µM | 1.13 µM and 0.485 µM | 4.47 µM and 2.08 µM | 0.481 µM and 3.5 µM | 0.448 µM and 2.09 µM | – | – | – | – | – | 3.27 µM and 1.05 µM | 0.477 µM and 0.191 µM | 0.265 µM and 1.46 µM | 149 nM and 626 nM | 1010 nM and 354 nM
CCCCCCCCCCCCCCCC(=O)NC(CCCCN)C(=O)NCC(=O)NC(Cc1ccccc1)C(=O)N1CCCC1C(=O)NC(CO)C(=O)NC(Cc1ccc(O)cc1)C(=O)NC(CCCCN)C(=O)NC(CC(C)C)C(=O)NC(CCCN=C(N)N)C(=O)N1CCCC1C(=O)NCC(N)=O (configuration not stated) (Palmitoyl-KGFPSYKLRPG-NH2; configuration not given here) | 44.4 µM | 41.1 µM | – | 44.3 µM | – | 48.1 µM | 69.4 µM | 45.2 µM | 48 µM | 50.4 µM | 19.5 µM | 19.6 µM | – | 17.8 µM | – | 20.7 µM | 27.6 µM | 21.8 µM | 24100 nM | 18000 nM
O=C(CCN1CCCCC1CO)Nc1ccc2c(c1)C(=O)c1ccc(NC(=O)CCN3CCCCC3CO)cc1C2=O (configuration not stated) | 82.4 µM | 21.7 µM | 54 µM | 23.1 µM | 20.8 µM | 67.5 µM | 7.45 µM | – | 91.3 µM | – | – | – | – | – | – | – | – | – | – | –
O=C(O)CCCc1nc2c(n1-c1ccccc1)C(=O)c1ccccc1C2=O | > 100 µM | > 100 µM | > 100 µM | > 100 µM | > 100 µM | > 100 µM | – | > 100 µM | > 100 µM | – | – | – | – | – | – | – | – | – | – | –
CN(C)CCNC(=O)c1cccc2c(NC(CS)C(=O)O)c3ccccc3nc12 (configuration not stated) | 66.9 µM | 16 µM | 26.3 µM | 28 µM | 21.1 µM | 60.4 µM | – | – | > 100 µM | 45.6 µM | – | – | – | – | – | – | – | – | – | –
C[C@@H](C[C@@H](O)[C@H](O)C(C)(C)O)[C@H]1CC=C2[C@]3(C)[C@H](O)C[C@H]4C(C)(C)[C@H](O)CC[C@]4(C)[C@H]3CC[C@@]21C | 26.4 µM | 28.5 µM | 36.1 µM | 30.1 µM | 30 µM | 33.4 µM | 35.7 µM | – | 32 µM | 31.1 µM | – | – | – | – | – | – | – | – | – | –
